The values below come from article PMC3930694, “Small Molecule Inhibitors Target the Tissue Transglutaminase and Fibronectin Interaction” (PLoS ONE, 2014).

This test has as its target T1, Tissue transglutaminase (TG2) (Homo sapiens, UniProt P21980).
T1 construct: gene TGM2; Full length TG2, His6-tagged, expressed in E. coli
In words: competition ELISA with purified His6-TG2 and biotinylated FN42 (FN42 saturation curves, Lineweaver-Burk); AlphaLISA. In kind it is binding.

T1 sequence (P21980 whole entry): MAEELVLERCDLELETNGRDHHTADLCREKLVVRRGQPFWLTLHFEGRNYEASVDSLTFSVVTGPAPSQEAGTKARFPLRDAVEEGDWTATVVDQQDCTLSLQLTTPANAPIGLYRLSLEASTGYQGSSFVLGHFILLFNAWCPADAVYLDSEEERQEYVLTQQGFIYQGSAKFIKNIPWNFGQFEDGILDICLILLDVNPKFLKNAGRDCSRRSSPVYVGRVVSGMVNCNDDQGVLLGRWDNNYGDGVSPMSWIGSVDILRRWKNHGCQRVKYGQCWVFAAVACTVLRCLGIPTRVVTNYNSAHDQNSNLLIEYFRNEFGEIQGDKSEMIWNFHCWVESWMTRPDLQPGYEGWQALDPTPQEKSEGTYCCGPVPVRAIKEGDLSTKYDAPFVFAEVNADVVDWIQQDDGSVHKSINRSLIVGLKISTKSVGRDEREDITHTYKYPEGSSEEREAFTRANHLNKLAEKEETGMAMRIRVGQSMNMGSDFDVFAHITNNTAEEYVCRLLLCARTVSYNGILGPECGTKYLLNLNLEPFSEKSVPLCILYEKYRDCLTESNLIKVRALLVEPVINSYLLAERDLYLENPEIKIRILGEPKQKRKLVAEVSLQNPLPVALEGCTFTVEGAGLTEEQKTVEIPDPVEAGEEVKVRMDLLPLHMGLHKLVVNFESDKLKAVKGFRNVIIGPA
T1 sequence (P02751 32-2477 partner): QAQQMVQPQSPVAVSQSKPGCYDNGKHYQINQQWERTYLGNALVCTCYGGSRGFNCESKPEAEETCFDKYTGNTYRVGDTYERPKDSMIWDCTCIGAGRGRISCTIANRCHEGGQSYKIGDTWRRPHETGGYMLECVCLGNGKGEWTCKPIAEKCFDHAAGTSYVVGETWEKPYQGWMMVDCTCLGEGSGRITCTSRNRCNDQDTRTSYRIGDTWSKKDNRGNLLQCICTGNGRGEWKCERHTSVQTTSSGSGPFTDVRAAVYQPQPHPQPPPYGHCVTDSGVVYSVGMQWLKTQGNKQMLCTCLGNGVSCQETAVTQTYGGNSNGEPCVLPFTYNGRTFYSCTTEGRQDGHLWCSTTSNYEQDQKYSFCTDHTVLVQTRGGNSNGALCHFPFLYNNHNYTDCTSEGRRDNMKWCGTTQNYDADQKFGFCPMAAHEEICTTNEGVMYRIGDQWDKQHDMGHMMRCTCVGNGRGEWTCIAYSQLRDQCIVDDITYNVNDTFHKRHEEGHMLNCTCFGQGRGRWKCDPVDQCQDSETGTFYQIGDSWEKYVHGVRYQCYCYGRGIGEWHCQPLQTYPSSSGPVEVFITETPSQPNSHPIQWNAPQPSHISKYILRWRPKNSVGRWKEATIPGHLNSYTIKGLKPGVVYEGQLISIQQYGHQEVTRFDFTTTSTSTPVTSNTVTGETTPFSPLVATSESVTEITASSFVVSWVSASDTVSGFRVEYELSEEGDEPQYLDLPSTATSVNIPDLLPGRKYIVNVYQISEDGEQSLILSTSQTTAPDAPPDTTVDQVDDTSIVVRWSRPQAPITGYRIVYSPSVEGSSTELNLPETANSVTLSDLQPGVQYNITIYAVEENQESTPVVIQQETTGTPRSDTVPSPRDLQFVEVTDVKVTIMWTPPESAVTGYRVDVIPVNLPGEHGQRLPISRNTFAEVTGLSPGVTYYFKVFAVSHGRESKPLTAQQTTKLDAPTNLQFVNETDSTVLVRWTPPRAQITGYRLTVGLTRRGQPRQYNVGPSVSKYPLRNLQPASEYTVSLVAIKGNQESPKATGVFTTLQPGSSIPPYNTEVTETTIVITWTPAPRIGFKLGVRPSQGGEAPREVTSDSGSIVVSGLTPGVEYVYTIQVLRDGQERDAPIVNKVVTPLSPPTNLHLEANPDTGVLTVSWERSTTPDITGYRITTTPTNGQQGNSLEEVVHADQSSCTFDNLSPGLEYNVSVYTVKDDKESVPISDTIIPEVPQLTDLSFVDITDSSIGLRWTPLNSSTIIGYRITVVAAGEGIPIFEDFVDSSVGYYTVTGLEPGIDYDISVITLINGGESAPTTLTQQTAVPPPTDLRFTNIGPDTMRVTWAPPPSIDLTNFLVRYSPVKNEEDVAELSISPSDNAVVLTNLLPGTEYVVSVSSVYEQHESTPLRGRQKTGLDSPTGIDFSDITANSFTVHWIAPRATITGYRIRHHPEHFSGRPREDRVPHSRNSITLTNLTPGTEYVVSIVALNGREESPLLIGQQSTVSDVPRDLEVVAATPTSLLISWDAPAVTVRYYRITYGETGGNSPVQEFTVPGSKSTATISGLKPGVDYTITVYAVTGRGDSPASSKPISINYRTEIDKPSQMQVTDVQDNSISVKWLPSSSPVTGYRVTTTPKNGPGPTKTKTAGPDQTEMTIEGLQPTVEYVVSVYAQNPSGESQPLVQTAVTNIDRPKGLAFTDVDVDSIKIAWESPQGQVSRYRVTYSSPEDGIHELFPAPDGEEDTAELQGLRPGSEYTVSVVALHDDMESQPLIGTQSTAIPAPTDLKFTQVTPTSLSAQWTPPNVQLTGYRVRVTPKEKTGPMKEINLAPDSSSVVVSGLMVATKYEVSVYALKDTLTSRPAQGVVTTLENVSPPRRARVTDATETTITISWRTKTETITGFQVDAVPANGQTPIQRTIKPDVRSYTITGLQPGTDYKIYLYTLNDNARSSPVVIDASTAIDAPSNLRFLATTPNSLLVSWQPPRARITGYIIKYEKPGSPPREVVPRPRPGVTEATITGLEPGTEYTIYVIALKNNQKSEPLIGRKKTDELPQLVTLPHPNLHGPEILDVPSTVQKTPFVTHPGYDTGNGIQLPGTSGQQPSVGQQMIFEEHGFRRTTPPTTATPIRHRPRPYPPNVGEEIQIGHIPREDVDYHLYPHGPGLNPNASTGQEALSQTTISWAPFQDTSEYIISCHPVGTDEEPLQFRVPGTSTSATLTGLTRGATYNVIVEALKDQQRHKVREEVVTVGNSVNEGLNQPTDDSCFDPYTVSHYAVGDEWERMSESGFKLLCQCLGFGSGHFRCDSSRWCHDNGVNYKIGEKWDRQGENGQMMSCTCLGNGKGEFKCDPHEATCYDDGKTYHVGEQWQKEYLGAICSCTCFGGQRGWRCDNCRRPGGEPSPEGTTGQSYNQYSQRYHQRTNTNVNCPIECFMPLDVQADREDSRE

For the molecule `COc1ccc(Cl)cc1C(=O)Nc1ccc(Nc2nc(C)cc(N(C)C)n2)cc1` [TG53], the Ki came out at 4.15 µM.
